Here are results for 3 compounds from patent publication US20110224147A1, “METHODS AND COMPOSITIONS” (Relevare Aust. Pyt. Ltd., priority 2008, published 2011).

Marks after values point to notes of the source that are not given here.

One data set deals with diabetic rats. Description: Open field activity monitor (sedation), diabetic rats. As for the experimental part: (§1) All experiments were performed on male Wistar rats, weight 170-220 g for experiments investigating sedation and antinociception using the carrageenan inflammation paradigm and weight 120-200 g for experiments evaluating sedation and antinociception using the diabetic neuropathy model. The experiments were performed in an observer-blinded fashion with parallel positive placebo (gabapentin) and negative placebo (vehicle) treatment controls. All drug solutions and vehicle were given intraperitoneally (ip) in a volume of 1.0 ml.
(§2) Measurement of the movements of a freely moving rat in an open field activity monitor was used. […] The maximum non-sedating doses of each compound alone and in combination were first determined in normal rats and then those doses were tested for sedation in diabetic rats. This was done to be sure that there was no sedation caused by the drugs, particularly in diabetics that are known to be more susceptible to CNS depressants.
(§3) The open field activity monitor (MedAssociates Inc. St. Albans, Vt. 05478, USA) is an enclosure with a quiet and darkened environment. It contains 16 intersecting beams of infrared light. Interruptions of beams by individual rats moving around the enclosure were recorded by computer. These measurements were converted to the total rest time in seconds during a 20 min period in the apparatus. Rest times of drug-treated rats were compared with vehicle-treated controls using ANOVA with Dunnet post hoc test.
(§4) Animals naïve to drug treatment were acclimatized to the lab environment and individual rats were selected randomly from a group one at a time. They were injected (ip) with vehicle, a test drug dose or a combination of drugs in an operator-blinded fashion. Five minutes after the ip injection each rat was placed in the open field activity monitor for a 20-min period.
(§5) Groups of rats were tested with the open field activity monitor as above with the following ip treatments: • vehicle controls, n=121 experiments • CNSB002 at doses 10 and 20 mg/kg, n=20 and 10 experiments • morphine at doses 6.4 and 3.2 mg/kg, n=21 and 20 experiments • a combination of CNSB002 at 10 mg/kg with morphine at 3.2 mg/kg, n=21 experiments • a combination of CNSB002 at 5.0 mg/kg with morphine at 3.2 mg/kg, n=19 experiments • gabapentin at doses of 100 and 50 mg/kg, n=26 each experiments • a combination of GABApentin at 50 mg/kg with morphine at 3.2 mg/kg, n=19 experiments
Rats were injected ip with streptozotocin (STZ; […] total dose) dissolved in 0.9% w/v sodium chloride solution. The 150 mg dose was given in two 75 mg/kg injections on consecutive days. Diabetes was confirmed one week after injection of STZ by measurement of tail vein blood glucose levels with AccuCheck Active test strips and a reflectance colorimeter (AccuCheck Glucometer, Roche). Only animals with final blood glucose levels ≧15 mM were deemed to be diabetic. The rats were retested for hyperglycaemia once per week to confirm continued high blood glucose readings. Hyperalgesia was assessed by measurement of paw flick latency using the radiant heat plantar test described previously by Hargreaves et al, 1988 supra.

Data set [1] has as its system hyperalgesia caused by STZ-induced diabetic neuropathy. Description: Streptozotocin-induced diabetic neuropathy model (paw flick latency, radiant heat plantar test). In kind it is in vivo, rat. Conditions: diabetic rats.
The subject of a further data set is normal rats. Description: Open field activity monitor (sedation), normal rats. Here is the method: as §1, §2, §3, §4, §5
Data set [2] deals with carrageenan-induced hyperalgesia. Description: Carrageenan paw inflammation test (paw withdrawal latency, noxious heat). In kind it is in vivo, rat. Conditions: for antinociception, significance vs vehicle controls: p>0.05. As for the experimental part: as §1
Two tests for antinociception were used: the carrageenan paw inflammation test; and the streptozotocin-induced diabetic neuropathy model. Inflammation of the right hind paw was induced by an intraplantar injection of carrageenan (100 μl of a 2% w/v carrageenan solution in saline). Time was allowed for paw inflammation to develop (2 hours). Paw withdrawal latencies were measured using noxious heat from an infrared beam focused onto the plantar surface of the right hind paw in unrestrained animals using apparatus from Ugo Basile (via G. Borghi 43, 21025 Comerio VA—Italy). The method used was originally described by Hargreaves et al, Pain 32:77-88, 1988.
Paw withdrawal latencies were measured at 10 min intervals before the induction of inflammation with carrageenan injection until 3 stable baseline readings were obtained (baseline readings—see FIG. 1). […] A test drug or drug combination was injected intraperitoneally and paw withdrawal values were measured at 10-minute intervals for the following 30 minutes (test drug readings—see FIG. 1).
The following drug treatments were given ip to separate groups of rats: • vehicle controls, n=63 • CNSB002 at dose range 0.5 mg/kg to 10 mg/kg alone, n=14 each • morphine at dose range 0.2 mg/kg to 3.2 mg/kg alone, n=10 each • combinations of CNSB002 at 5 mg/kg with morphine at 0.2, 0.4, 0.8, 1.6 and 3.2 mg/kg, n=10 each • gabapentin alone at 50 mg/kg, n=20 • combination of gabapentin at 50 mg/kg with morphine 3.2 mg/kg, n=20
Drug and placebo/vehicle treatments were compared statistically using ANOVA with Tukey-Kramer post hoc test.
For orientation: In the carrageenan paw model, swelling and tenderness develop within hours.

The mark [3] stands for this setting: male, Wistar, rat, in vivo, ip, 10 mg/kg, 20 min.
[4] abbreviates: CNSB002 10 mg/kg ip alone, p<0.01.
The mark [5] stands for this setting: gabapentin 50 mg/kg ip alone, p<0.01.
The mark [6] stands for this setting: morphine 3.2 mg/kg ip alone, p<0.05.

On to `CC(C)(C)c1cc(CN2CCN(CC(O)c3ccc(Cl)cc3)CC2)cc(C(C)(C)C)c1O` (stereo not shown) [CNSB002, 1-(2-(4-chlorophenyl)-2-hydroxy)ethyl-4-(3,5-bis(1,1-dimethyl)-4-hydroxyphenyl)methylpiperazine], for which the “total rest time during a 20 min period (mean)” value in the data set on diabetic rats (setting [3]) is 1005.6 s; in the data set on normal rats (setting [3]) it was 851.2 s; in the data set on normal rats (male, Wistar, rat, in vivo, ip, 20 mg/kg, 20 min), 1001.2* seconds. Besides, the “sedation vs vehicle controls” value in the data set on diabetic rats (rat, in vivo, ip, 10 mg/kg) is given as “not sedating”; in the data set with normal rats (rat, in vivo, ip, 10 mg/kg), “did not cause sedation”; in the data set with normal rats (rat, in vivo, ip, 20 mg/kg), “sedating”. The “antinociception compared with CNSB002 at 0.5, 1.0 and 2.5 mg/kg” value in data set [1] (CNSB002 10 mg/kg ip alone, not vs 5 mg/kg) is recorded as “significantly greater”. In addition, the “antinociception, significance vs vehicle controls” value is listed as “significant antinociceptive effect” in data set [1] (setting [4]), “No other doses of CNSB002 administered alone caused significant antinociception” in data set [1] (CNSB002 doses other than 10 mg/kg (0.5-5 mg/kg) ip alone) and “No dose of gabapentin or CNSB002 administered alone caused statistically-significant antinociception” in data set [2] (CNSB002 0.5-10 mg/kg ip alone). The reversal of hyperalgesia in data set [1] (setting [4]) is listed as 26%. Further, the “reversal of carrageenan-induced hyperalgesia” value in data set [2] (CNSB002 5 mg/kg ip alone) and in data set [2] (CNSB002 10 mg/kg ip alone) was 35% throughout. In addition, the “antinociception compared with CNSB002 at 0.5 mg/kg” value in data set [2] (CNSB002 5 or 10 mg/kg ip alone) is reported as “significantly greater”.
For the compound `NCC1(CC(=O)O)CCCCC1` [gabapentin], the “total rest time during a 20 min period (mean)” value with diabetic rats (diabetic rats, gabapentin 50 mg/kg ip alone, Table 2A) is 985.8 s; in the data set with diabetic rats (diabetic rats, gabapentin 100 mg/kg ip alone, Table 2A), 941.2 s; in the data set with normal rats (normal rats, gabapentin 50 mg/kg ip alone, Table 1C), 753.0 s; in the data set with normal rats (normal rats, gabapentin 100 mg/kg ip alone, Table 1C), 881.6* seconds. The “sedation vs vehicle controls” value is recorded as “not sedating” with diabetic rats (diabetic rats, gabapentin 50 mg/kg ip alone, p>0.05); “not sedating” in the data set on diabetic rats (diabetic rats, gabapentin 100 mg/kg ip alone, p>0.05); “did not cause sedation” in the data set on normal rats (normal rats, gabapentin 50 mg/kg ip alone, p>0.05); “caused significant sedation” in the data set on normal rats (normal rats, gabapentin 100 mg/kg ip alone, p<0.01). Besides, the entries for the “antinociception, significance vs vehicle controls” value in data set [1] (setting [5]) and in data set [2] (gabapentin 50 mg/kg ip alone) were “equally significant antinociception” and “No dose of gabapentin or CNSB002 administered alone caused statistically-significant antinociception”, respectively. In data set [1] (setting [5]), the reversal of hyperalgesia came out at 26%.
For the compound `CN1CC[C@]23c4c5ccc(O)c4O[C@H]2[C@@H](O)C=C[C@H]3[C@H]1C5` [morphine], the “total rest time during a 20 min period (mean)” value in the data set with diabetic rats (diabetic rats, morphine 3.2 mg/kg ip alone, Table 2A) was 943.6 s; with diabetic rats (diabetic rats, morphine 6.4 mg/kg ip alone, Table 2B), 972.6* seconds; in the data set with normal rats (normal rats, morphine 3.2 mg/kg ip alone, Table 1B), 961.0 s. Further, the “sedation vs vehicle controls” value in the data set on diabetic rats (diabetic rats, morphine 3.2 mg/kg ip alone, p>0.05) is “not sedating”; in the data set on diabetic rats (diabetic rats, morphine 6.4 mg/kg ip alone, p<0.01), “caused sedation”; in the data set with normal rats (normal rats, doses of morphine up to 6.4 mg/kg ip) it was “sedation was not caused”; with normal rats (normal rats, morphine 3.2 mg/kg ip alone, p>0.05 unpaired t test) it was “did not cause sedation”. Moreover, the “antinociception, significance vs vehicle controls” value was “significant antinociceptive effect” in data set [1] (setting [6]); “No dose of morphine alone caused significant antinociception” in data set [1] (morphine alone ip, doses below the highest dose 3.2 mg/kg, p>0.05); “caused no significant antinociception” in data set [2] (morphine 0.2-3.2 mg/kg ip alone). In data set [1] (setting [6]), the reversal of hyperalgesia came out at 30%. Besides, the “reversal of carrageenan-induced hyperalgesia” value in data set [2] (morphine 3.2 mg/kg ip alone) is on record as 24%.
